Data published in patent US20240285661A1, “Inhibitor of Invasion of Virus to Cell” (TOYO SUGAR REFINING CO., LTD., priority 2021, published 2024).

Columns and labels:
[1] = system: pseudo SARS-CoV-2; assay: microbe, parasite or virus in culture; type: cell-based; details: Severe acute respiratory syndrome coronavirus 2, Caco-2 cells, read-out: Inhibition rate of invasion to cell (%)
[2] = system: pseudo SARS-CoV-2; assay: microbe, parasite or virus in culture; type: cell-based; details: Severe acute respiratory syndrome coronavirus 2, A549, concentration 20 nM, read-out: Inhibition rate of invasion to cell (%)

N=C(N)c1ccc2cc(OC(=O)c3ccc(N=C(N)N)cc3)ccc2c1 [Nafamostat]
inhibition at 0.00016 µM ([1]; concentration 0.16 nM): 40.4% | inhibition at 0.0008 µM ([1]; concentration 0.80 nM): 48.9% | inhibition at 0.1 µM ([1]; concentration 100 nM): 76.1% | inhibition at 0.02 µM [2]: 49%
